Square brackets hold non-standard residues; d marks the D form. Peptide text beside a SMILES is read from it. Sar = CNCC(=O)O
Experiments:
canine PepT1 (cPepT1) = biological target: T1, canine PepT1 (cPepT1) (Canis lupus familiaris, UniProt Q8WMX5); experiment: Substrate regulation of H+-dependent GlySar uptake capacity of MDCK cells cultured in DMEM (Example 3, Trials 1 and 2); assay type: cell-based; conditions: 10 mM in DMEM, 24 h of culture
T1 construct: endogenous in cells; host or cells: MDCK (Madin-Darby Canine Kidney) cells, whole-cell [3H]-GlySar uptake
T1 sequence (Q8WMX5 1-708): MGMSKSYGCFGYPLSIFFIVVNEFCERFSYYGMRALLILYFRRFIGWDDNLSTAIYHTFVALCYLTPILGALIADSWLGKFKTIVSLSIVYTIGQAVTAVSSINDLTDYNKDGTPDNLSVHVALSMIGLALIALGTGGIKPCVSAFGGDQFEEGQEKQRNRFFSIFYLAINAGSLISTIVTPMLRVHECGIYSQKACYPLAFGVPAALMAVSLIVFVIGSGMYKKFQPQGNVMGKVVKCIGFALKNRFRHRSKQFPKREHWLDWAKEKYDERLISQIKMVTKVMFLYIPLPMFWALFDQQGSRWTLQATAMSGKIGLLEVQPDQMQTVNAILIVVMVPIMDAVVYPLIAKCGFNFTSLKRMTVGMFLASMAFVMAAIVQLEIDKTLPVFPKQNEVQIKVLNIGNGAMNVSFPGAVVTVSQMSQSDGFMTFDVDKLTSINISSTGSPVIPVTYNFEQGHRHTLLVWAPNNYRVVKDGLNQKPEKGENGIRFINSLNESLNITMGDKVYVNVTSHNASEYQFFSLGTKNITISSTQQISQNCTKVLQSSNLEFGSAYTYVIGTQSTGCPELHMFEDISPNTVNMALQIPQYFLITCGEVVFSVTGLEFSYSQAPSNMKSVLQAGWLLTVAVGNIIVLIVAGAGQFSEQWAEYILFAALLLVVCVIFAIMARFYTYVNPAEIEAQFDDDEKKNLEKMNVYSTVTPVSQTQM
Method: All cells were plated (60,000/2 cm^2 well) and cultured (95% air/5% CO2, 37° C.) for 24 h in Dulbecco's Modified Eagle Media/10% fetal calf serum (FCS)/1%Antibiotic/Antimicrobial solution (ABAM) (DMEM media). Following these initial common culture conditions, cells then were cultured in DMEM, or DMEM that contained 10 mM of Camosine, GlyPhe, Phe, or Gly. Media were changed every 24 h. Media treatments (n=8) were as follows:
The measurement of [^3H]Glysarcosine uptake was performed by using a 24-well cluster tray method (Kilberg M S. Measurement of amino acid transport by hepatocytes in suspension and monolayer culture. Methods Enzym 1989; 173:564-575. Matthews J C, Aslanian A, McDonald K K, Yang W, Malandro M S, Novak D A, Kilberg M S. An expression system for mammalian amino acid transport using a stably maintained episomal vector. Anal Biochem 1997; 254:208-214), and used in Examples 1 and 2. Cells were cultured for 30 min in air at 37° C. in depletion medium (25 mM Hepes/Tris (pH 7.5), 140 mM NaCl, 5.4 mM KCl, 1.8 mM CaCl2, 0.8 mM MgSO4, and 5 mM glucose), to normalize intracellular nutrient pools before transport. The transport assays are initiated by replacing depletion medium with uptake medium (Depletion medium adjusted to pH 6.0) that contained 100 μM GlySar (5 μCi/mL, with [^3H]-GlySar supplying 2.88% of total GlySar). After a 30 minute incubation period, transport was terminated with four rinses of 4° C. depletion medium (pH 7.5). Two hundred and twenty μL of 10% trichloroacetic acid was added to each well, and the radioactivity of the supernatant quantified by liquid scintillation counting. The cells of each well are solubilized in 0.2 N NaOH/0.2% SDS and the protein quantified by using the modified Lowry assay, using bovine serum as a standard. Id. Peptide uptake will be reported as pmol* mg^−1 protein* 30 min^−1. Uptake measurements were taken after 24, 48, and 72 hours of culture in treatment media.
The MDCK cell line was maintained as described previously in the Methods section of Trial 1. […]

[1] = biological target: T2, PepT1-expressing Caco-2 cells (Homo sapiens, UniProt P46059); conditions: read-out: reported Km for GlySar uptake; cited from earlier work
T2 construct: GlySar uptake by the PepT1-expressing Caco-2 cells; host or cells: Caco-2 cells
T2 sequence (P46059 1-708): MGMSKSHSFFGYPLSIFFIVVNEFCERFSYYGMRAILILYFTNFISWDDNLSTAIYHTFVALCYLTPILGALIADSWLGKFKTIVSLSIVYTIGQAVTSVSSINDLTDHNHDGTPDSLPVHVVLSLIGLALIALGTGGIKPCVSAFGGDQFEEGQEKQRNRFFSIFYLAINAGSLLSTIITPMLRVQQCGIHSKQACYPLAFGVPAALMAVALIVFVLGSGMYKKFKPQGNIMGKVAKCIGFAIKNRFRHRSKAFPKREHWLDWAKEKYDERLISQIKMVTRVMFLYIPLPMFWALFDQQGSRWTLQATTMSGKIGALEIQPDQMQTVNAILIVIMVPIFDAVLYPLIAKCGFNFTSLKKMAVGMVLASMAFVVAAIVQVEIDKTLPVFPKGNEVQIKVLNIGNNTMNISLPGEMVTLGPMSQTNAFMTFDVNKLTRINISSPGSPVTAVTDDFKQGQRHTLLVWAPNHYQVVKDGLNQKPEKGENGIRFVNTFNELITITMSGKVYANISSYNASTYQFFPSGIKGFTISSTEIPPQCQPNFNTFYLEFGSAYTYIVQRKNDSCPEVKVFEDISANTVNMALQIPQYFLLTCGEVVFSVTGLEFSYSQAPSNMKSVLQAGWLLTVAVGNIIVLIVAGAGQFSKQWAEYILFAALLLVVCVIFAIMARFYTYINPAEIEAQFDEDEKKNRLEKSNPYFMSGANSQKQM

Structure (SMILES): CN(CC(=O)O)C(=O)CN [GlySar, glycylsarcosine] (H-Gly-[Sar]-OH)
- increase in GlySar uptake capacity over DMEM control media (canine PepT1 (cPepT1)): about 30%
- Km [1]: 1.1 mM

Reference: patent publication US6803186B2, “Compositions and methods for increasing amino acid absorption in mammals” (The IAMS Company, priority 2001, dated 2004)
